For the experiment, the system named is PC3 cells. Nature of the experiment: NAMPT Cell Proliferation Assay. It is filed as cell-based. The note with it: Homo sapiens, PC-3, 120 h, 5 days incubation, cell viability by Cell Titer Glo. An outline of the steps: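 Five-day CellTiter-Glo viability readout in PC3 cells grown in RPMI/10% heat-inactivated FBS. Compounds added after overnight attachment as a 10-fold dilution series, […]. Percent inhibition fitted to sigmoidal dose-response to derive IC50.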

This is an account of results in patent US20130303509A1, “NAMPT INHIBITORS” (AbbVie Inc., priority 2012, published 2013).

Structures are written as SMILES.

`CC(C)c1ccc(C(=O)N2CCC(c3ccc(NC(=O)C4CN(c5cccnn5)C4)cc3)CC2)cc1` [Example 392, N-(4-{1-[4-(propan-2-yl)benzoyl]piperidin-4-yl}phenyl)-1-(pyridazin-3-yl)azetidine-3-carboxamide] returned an IC50 of 3.54 nM. The same measure for `CC(C)(C)c1ccc(C(=O)N2CCC(c3ccc(NC(=O)C4CN(c5cccnn5)C4)cc3)CC2)cc1` [Example 393, N-{4-[1-(4-tert-butylbenzoyl)piperidin-4-yl]phenyl}-1-(pyridazin-3-yl)azetidine-3-carboxamide]: 3.72 nM; for `O=C(Nc1ccc(C2CCN(C(=O)c3cc(C(F)(F)F)ccc3F)CC2)cc1)C1CN(c2cccnn2)C1` [Example 394, N-(4-{1-[2-fluoro-5-(trifluoromethyl)benzoyl]piperidin-4-yl}phenyl)-1-(pyridazin-3-yl)azetidine-3-carboxamide]: 1.99 nM. The compound `O=C(Nc1ccc(C2CCN(C(=O)c3cc(C(F)(F)F)ccc3Cl)CC2)cc1)C1CN(c2cccnn2)C1` [Example 395, N-(4-{1-[2-chloro-5-(trifluoromethyl)benzoyl]piperidin-4-yl}phenyl)-1-(pyridazin-3-yl)azetidine-3-carboxamide] yielded an IC50 of 2.14 nM. Then `O=C(Nc1ccc(O[C@@H]2CCN(C(=O)c3ccc(F)cc3)C2)cc1)C1CN(c2ccnnc2)C1` [Example 396, N-(4-{[(3R)-1-(4-fluorobenzoyl)pyrrolidin-3-yl]oxy}phenyl)-1-(pyridazin-4-yl)azetidine-3-carboxamide], with 68.5 nM; and `O=C(Nc1ccc(C2CCN(C(=O)CC3CCCC3)CC2)cc1)C1CN(c2cccnn2)C1` [Example 397, N-{4-[1-(cyclopentylacetyl)piperidin-4-yl]phenyl}-1-(pyridazin-3-yl)azetidine-3-carboxamide], with 3.35 nM. The same measure for `Cc1ccc(OCC(=O)N2CCC(c3ccc(NC(=O)C4CN(c5cccnn5)C4)cc3)CC2)cc1` [Example 398, N-(4-{1-[(4-methylphenoxy)acetyl]piperidin-4-yl}phenyl)-1-(pyridazin-3-yl)azetidine-3-carboxamide]: 8.19 nM; for `CC[C@H](C(=O)N1CCC(c2ccc(NC(=O)C3CN(c4cccnn4)C3)cc2)CC1)c1ccccc1` [Example 399, N-(4-{1-[(2S)-2-phenylbutanoyl]piperidin-4-yl}phenyl)-1-(pyridazin-3-yl)azetidine-3-carboxamide]: 6.35 nM; for `O=C(Nc1ccc(C2CCN(C(=O)c3cc(F)cc(F)c3)CC2)cc1)C1CN(c2cccnn2)C1` [Example 400, N-{4-[1-(3,5-difluorobenzoyl)piperidin-4-yl]phenyl}-1-(pyridazin-3-yl)azetidine-3-carboxamide]: 6.8 nM. The same measure for `O=C(Nc1ccc(C2CCN(C(=O)c3ccc(Cl)cc3)CC2)cc1)C1CN(c2cccnn2)C1` [Example 401, N-{4-[1-(4-chlorobenzoyl)piperidin-4-yl]phenyl}-1-(pyridazin-3-yl)azetidine-3-carboxamide]: 8.54 nM; for `CC(C)(C)C(=O)N1CCC(c2ccc(NC(=O)C3CN(c4cccnn4)C3)cc2)CC1` [Example 402, N-{4-[1-(2,2-dimethylpropanoyl)piperidin-4-yl]phenyl}-1-(pyridazin-3-yl)azetidine-3-carboxamide]: 1.68 nM. Take `O=C(Nc1ccc(C2CCN(C(=O)Cc3cccc(C(F)(F)F)c3)CC2)cc1)C1CN(c2cccnn2)C1` [Example 403, 1-(pyridazin-3-yl)-N-[4-(1-{[3-(trifluoromethyl)phenyl]acetyl}piperidin-4-yl)phenyl]azetidine-3-carboxamide]: it took 4.1 nM to reach half-maximal inhibition (IC50). Then `O=C(Nc1ccc(C2CCN(C(=O)Cc3cccc(Cl)c3)CC2)cc1)C1CN(c2cccnn2)C1` [Example 404, N-(4-{1-[(3-chlorophenyl)acetyl]piperidin-4-yl}phenyl)-1-(pyridazin-3-yl)azetidine-3-carboxamide], with 2.7 nM. As for `O=C(Nc1ccc(C2CCN(C(=O)Cc3ccc(Cl)cc3Cl)CC2)cc1)C1CN(c2cccnn2)C1` [Example 405, N-(4-{1-[(2,4-dichlorophenyl)acetyl]piperidin-4-yl}phenyl)-1-(pyridazin-3-yl)azetidine-3-carboxamide], the IC50 is 6.75 nM. Then `O=C(Nc1ccc(C2CCN(C(=O)c3cccc4ccccc34)CC2)cc1)C1CN(c2cccnn2)C1` [Example 406, N-{4-[1-(naphthalen-1-ylcarbonyl)piperidin-4-yl]phenyl}-1-(pyridazin-3-yl)azetidine-3-carboxamide], with 7.42 nM; and `CO[C@@H](C(=O)N1CCC(c2ccc(NC(=O)C3CN(c4cccnn4)C3)cc2)CC1)c1ccccc1` [Example 407, N-(4-{1-[(2R)-2-methoxy-2-phenylacetyl]piperidin-4-yl}phenyl)-1-(pyridazin-3-yl)azetidine-3-carboxamide], with 1.01 nM; and `O=C(NCC(=O)N1CCC(c2ccc(NC(=O)C3CN(c4cccnn4)C3)cc2)CC1)c1ccco1` [Example 408, N-(4-{1-[N-(furan-2-ylcarbonyl)glycyl]piperidin-4-yl}phenyl)-1-(pyridazin-3-yl)azetidine-3-carboxamide], with 29.9 nM. On to `O=C(Nc1ccc(C2CCN(C(=O)COCc3ccccc3)CC2)cc1)C1CN(c2cccnn2)C1` [Example 409, N-(4-{1-[(benzyloxy)acetyl]piperidin-4-yl}phenyl)-1-(pyridazin-3-yl)azetidine-3-carboxamide], for which the IC50 is 6.72 nM.

`O=C(Nc1ccc(C2CCN(C(=O)Cc3cccc4ccccc34)CC2)cc1)C1CN(c2cccnn2)C1` [Example 410, N-{4-[1-(naphthalen-1-ylacetyl)piperidin-4-yl]phenyl}-1-(pyridazin-3-yl)azetidine-3-carboxamide] yielded an IC50 of 8.68 nM.

On to `O=C(Nc1ccc(C2CCN(C(=O)C3CC3)CC2)cc1)C1CN(c2cccnn2)C1` [Example 411, N-{4-[1-(cyclopropylcarbonyl)piperidin-4-yl]phenyl}-1-(pyridazin-3-yl)azetidine-3-carboxamide], for which inhibition was half-maximal at 7.15 nM (IC50). For `O=C(Nc1ccc(C2CCN(C(=O)C3CCCO3)CC2)cc1)C1CN(c2cccnn2)C1` (stereo not drawn) [Example 412, 1-(pyridazin-3-yl)-N-{4-[1-(tetrahydrofuran-2-ylcarbonyl)piperidin-4-yl]phenyl}azetidine-3-carboxamide], the IC50 came to 1.37 nM. Then `O=C(NCC(=O)N1CCC(c2ccc(NC(=O)C3CN(c4cccnn4)C3)cc2)CC1)c1ccccc1` [Example 413, N-{4-[1-(N-benzoylglycyl)piperidin-4-yl]phenyl}-1-(pyridazin-3-yl)azetidine-3-carboxamide], with 10 nM; and `O=C(Nc1ccc(C2CCN(C(=O)C3CCOC3)CC2)cc1)C1CN(c2cccnn2)C1` (stereo not drawn) [Example 414, 1-(pyridazin-3-yl)-N-{4-[1-(tetrahydrofuran-3-ylcarbonyl)piperidin-4-yl]phenyl}azetidine-3-carboxamide], with 7.4 nM. The same measure for `O=C(Nc1ccc(C2CCN(C(=O)CCCc3cccs3)CC2)cc1)C1CN(c2cccnn2)C1` [Example 415, 1-(pyridazin-3-yl)-N-(4-{1-[4-(thiophen-2-yl)butanoyl]piperidin-4-yl}phenyl)azetidine-3-carboxamide]: 2.28 nM.

`O=C(Nc1ccc(C2CCN(C(=O)c3cc(F)ccc3F)CC2)cc1)C1CN(c2cccnn2)C1` [Example 416, N-{4-[1-(2,5-difluorobenzoyl)piperidin-4-yl]phenyl}-1-(pyridazin-3-yl)azetidine-3-carboxamide] came in with an IC50 of 1.12 nM. `O=C(Nc1ccc(C2CCN(C(=O)C3CCC3)CC2)cc1)C1CN(c2cccnn2)C1` [Example 417, N-{4-[1-(cyclobutylcarbonyl)piperidin-4-yl]phenyl}-1-(pyridazin-3-yl)azetidine-3-carboxamide] gave an IC50 of 6.45 nM. Then `Cc1ccc(S(=O)(=O)NCC(=O)N2CCC(c3ccc(NC(=O)C4CN(c5cccnn5)C4)cc3)CC2)cc1` [Example 418, N-[4-(1-{N-[(4-methylphenyl)sulfonyl]glycyl}piperidin-4-yl)phenyl]-1-(pyridazin-3-yl)azetidine-3-carboxamide], with 8.26 nM; and `O=C(Nc1ccc(C2CCN(C(=O)Cc3cccc(F)c3F)CC2)cc1)C1CN(c2cccnn2)C1` [Example 419, N-(4-{1-[(2,3-difluorophenyl)acetyl]piperidin-4-yl}phenyl)-1-(pyridazin-3-yl)azetidine-3-carboxamide], with 2.17 nM; and `CO[C@H](C(=O)N1CCC(c2ccc(NC(=O)C3CN(c4cccnn4)C3)cc2)CC1)c1ccccc1` [Example 420, N-(4-{1-[(2S)-2-methoxy-2-phenylacetyl]piperidin-4-yl}phenyl)-1-(pyridazin-3-yl)azetidine-3-carboxamide], with 2.35 nM. `O=C(Nc1ccc(C2CCN(C(=O)Cc3ccc4ccccc4c3)CC2)cc1)C1CN(c2cccnn2)C1` [Example 421, N-{4-[1-(naphthalen-2-ylacetyl)piperidin-4-yl]phenyl}-1-(pyridazin-3-yl)azetidine-3-carboxamide] showed an IC50 of 3.72 nM. Then `O=C(Nc1ccc(C2CCN(C(=O)CCc3ccccc3)CC2)cc1)C1CN(c2cccnn2)C1` [Example 422, N-{4-[1-(3-phenylpropanoyl)piperidin-4-yl]phenyl}-1-(pyridazin-3-yl)azetidine-3-carboxamide], with 1.12 nM. The same measure for `O=C(Nc1ccc(C2CCN(C(=O)Cc3c(Cl)cccc3Cl)CC2)cc1)C1CN(c2cccnn2)C1` [Example 423, N-(4-{1-[(2,6-dichlorophenyl)acetyl]piperidin-4-yl}phenyl)-1-(pyridazin-3-yl)azetidine-3-carboxamide]: 0.38 nM; for `O=C(Nc1ccc(C2CCN(C(=O)CCS(=O)(=O)c3ccccc3)CC2)cc1)C1CN(c2cccnn2)C1` [Example 424, N-(4-{1-[3-(phenylsulfonyl)propanoyl]piperidin-4-yl}phenyl)-1-(pyridazin-3-yl)azetidine-3-carboxamide]: 1.5 nM.
